Literature values, collected in US7674824B2, “Stable oxaliplatin formulation” (Fresenius Kabi Oncology Limited, priority 2006, dated 2010).

Conditions: 0.9% sodium chloride solution

O=C1[O][Pt]2([NH][C@@H]3CCCC[C@H]3[NH]2)[O]C1=O [oxaliplatin]
Stability after reconstitution in chloride-containing solution (in words): rapidly decomposing
